Values of other authors as cited in US20020051751A1, “Pharmaceuticals and apparatus providing diagnosis and selective tissue necrosis” (priority 1985, published 2002).

Test system: DNA

Bleomycin
binding constant of Bleomycin to DNA: 10^6 | Bleomycin molecules bound per nucleotides (results from Kd of 10^6): one Bleomycin molecule bound per eight nucleotides
